The results in this text go back to ChEMBL document CHEMBL5465560, “Selectivity Literature for EUbOPEN Chemogenomic Library” (2024).

The target in experiment [1] is Kappa-type opioid receptor (Homo sapiens, UniProt P41145). Nature of the experiment: Selectivity interaction (Panel of non-epigenetic targets (kinases, GPCRs, ion channels, and transporters, Eurofins) ) EUB0000271b OPRK1. The following applies: at 1 µM.
The target of experiment [2] is T1, Serine/threonine-protein kinase ULK2 (Homo sapiens) (UniProt Q8IYT8).
T1 sequence (whole entry): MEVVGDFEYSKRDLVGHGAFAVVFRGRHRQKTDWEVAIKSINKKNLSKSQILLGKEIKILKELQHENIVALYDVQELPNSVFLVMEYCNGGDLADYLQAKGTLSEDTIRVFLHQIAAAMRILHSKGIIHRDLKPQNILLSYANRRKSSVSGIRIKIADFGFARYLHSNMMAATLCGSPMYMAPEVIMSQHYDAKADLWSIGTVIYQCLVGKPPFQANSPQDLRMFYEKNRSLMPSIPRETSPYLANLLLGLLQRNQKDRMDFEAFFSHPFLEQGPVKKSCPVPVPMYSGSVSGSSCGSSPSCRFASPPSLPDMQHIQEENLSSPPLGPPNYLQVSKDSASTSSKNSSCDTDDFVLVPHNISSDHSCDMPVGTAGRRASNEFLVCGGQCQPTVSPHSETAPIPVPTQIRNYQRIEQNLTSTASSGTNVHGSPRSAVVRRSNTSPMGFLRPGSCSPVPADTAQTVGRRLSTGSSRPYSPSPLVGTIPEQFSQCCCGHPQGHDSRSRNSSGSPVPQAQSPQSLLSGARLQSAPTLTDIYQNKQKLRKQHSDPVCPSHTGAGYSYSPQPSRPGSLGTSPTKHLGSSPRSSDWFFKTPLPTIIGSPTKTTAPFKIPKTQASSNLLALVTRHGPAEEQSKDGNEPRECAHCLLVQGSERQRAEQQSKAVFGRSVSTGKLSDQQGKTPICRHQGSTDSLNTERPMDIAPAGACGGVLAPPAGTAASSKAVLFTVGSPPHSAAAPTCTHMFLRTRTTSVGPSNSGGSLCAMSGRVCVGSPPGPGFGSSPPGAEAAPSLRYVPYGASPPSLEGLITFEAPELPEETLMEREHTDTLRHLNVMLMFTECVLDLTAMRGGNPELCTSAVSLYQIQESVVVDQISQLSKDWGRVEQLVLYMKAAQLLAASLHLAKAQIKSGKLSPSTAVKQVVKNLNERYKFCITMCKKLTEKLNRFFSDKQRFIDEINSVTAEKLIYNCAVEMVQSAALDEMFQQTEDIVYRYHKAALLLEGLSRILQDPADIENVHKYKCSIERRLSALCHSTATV
Nature of the experiment: Selectivity interaction (KinomeScan (DiscoverX)) EUB0000607a ULK2. The settings on record: at 10 µM.

For experiment [3], the target named is Protein kinase C eta type (Homo sapiens) (UniProt P24723). The settings on record: at 10 µM.
Sequence of Protein kinase C eta type (Homo sapiens) (P24723 whole entry): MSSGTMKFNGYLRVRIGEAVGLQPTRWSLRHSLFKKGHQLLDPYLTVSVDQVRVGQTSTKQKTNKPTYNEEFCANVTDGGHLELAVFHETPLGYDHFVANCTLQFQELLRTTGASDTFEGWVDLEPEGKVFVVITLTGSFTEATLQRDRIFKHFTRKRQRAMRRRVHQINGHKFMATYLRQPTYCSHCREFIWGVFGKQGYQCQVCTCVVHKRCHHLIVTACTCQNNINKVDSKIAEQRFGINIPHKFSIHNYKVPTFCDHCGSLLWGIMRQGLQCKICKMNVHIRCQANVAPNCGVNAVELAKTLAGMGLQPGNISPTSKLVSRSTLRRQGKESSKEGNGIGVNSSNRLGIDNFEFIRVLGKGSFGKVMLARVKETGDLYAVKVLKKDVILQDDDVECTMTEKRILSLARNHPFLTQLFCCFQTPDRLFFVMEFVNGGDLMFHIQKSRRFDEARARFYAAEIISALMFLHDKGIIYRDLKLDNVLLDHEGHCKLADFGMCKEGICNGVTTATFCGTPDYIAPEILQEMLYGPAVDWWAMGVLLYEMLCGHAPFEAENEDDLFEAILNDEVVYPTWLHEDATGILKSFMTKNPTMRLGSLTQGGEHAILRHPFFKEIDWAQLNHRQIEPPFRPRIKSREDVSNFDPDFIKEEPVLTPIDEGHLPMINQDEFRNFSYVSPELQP
Experiment [4] deals with T2, Tyrosine-protein kinase ZAP-70 (Homo sapiens, UniProt P43403).
T2 sequence (P43403 whole entry): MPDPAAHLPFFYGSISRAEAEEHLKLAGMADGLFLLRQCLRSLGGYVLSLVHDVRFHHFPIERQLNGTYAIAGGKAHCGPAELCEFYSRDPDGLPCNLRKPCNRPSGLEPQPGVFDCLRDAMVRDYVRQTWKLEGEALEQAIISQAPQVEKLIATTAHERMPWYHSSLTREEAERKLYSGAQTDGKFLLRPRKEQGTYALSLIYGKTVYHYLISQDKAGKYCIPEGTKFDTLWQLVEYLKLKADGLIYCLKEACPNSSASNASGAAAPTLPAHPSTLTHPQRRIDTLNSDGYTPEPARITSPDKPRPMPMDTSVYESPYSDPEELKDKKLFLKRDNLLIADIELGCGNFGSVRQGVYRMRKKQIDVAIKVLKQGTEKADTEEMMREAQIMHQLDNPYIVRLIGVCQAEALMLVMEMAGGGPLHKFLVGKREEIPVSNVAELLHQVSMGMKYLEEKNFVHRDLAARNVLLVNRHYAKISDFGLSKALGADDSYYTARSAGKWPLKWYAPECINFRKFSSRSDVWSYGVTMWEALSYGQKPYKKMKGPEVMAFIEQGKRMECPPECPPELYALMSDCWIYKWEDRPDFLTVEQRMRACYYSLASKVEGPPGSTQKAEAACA
Nature of the experiment: Selectivity interaction (Kinase panel (33PanQinase(R) Activity Assay)) EUB0000877a ZAP70.

A further experiment concerns the target Insulin receptor (Homo sapiens, UniProt P06213).
The target in experiment [5] is MAP kinase-interacting serine/threonine-protein kinase 2 (Homo sapiens, UniProt Q9HBH9). Nature of the experiment: Selectivity interaction (KinomeScan (DiscoverX)) EUB0000695a MKNK2. The following applies: at 100 nM.
Sequence of MAP kinase-interacting serine/threonine-protein kinase 2 (Q9HBH9 whole entry, looked up): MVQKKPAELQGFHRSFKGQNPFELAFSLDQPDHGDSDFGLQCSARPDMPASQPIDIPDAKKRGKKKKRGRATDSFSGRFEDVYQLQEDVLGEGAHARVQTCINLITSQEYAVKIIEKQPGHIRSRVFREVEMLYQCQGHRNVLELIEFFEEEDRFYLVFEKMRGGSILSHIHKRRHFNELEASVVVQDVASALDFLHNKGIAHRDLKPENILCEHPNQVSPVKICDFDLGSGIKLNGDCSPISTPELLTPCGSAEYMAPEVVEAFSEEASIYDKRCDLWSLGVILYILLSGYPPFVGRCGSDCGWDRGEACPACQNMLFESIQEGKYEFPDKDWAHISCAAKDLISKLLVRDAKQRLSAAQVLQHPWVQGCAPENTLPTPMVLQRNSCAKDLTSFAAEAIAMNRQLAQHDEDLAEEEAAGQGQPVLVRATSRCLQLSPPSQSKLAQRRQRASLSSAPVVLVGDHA
For experiment [6], the target named is Sodium-dependent dopamine transporter (Homo sapiens, UniProt Q01959). In words: Selectivity interaction (Eurofins CEREP Diversity Profile (receptors and ion channels)) EUB0000279b SLC6A3. The settings on record: at 10 µM.
Sequence of Sodium-dependent dopamine transporter (Q01959 whole entry): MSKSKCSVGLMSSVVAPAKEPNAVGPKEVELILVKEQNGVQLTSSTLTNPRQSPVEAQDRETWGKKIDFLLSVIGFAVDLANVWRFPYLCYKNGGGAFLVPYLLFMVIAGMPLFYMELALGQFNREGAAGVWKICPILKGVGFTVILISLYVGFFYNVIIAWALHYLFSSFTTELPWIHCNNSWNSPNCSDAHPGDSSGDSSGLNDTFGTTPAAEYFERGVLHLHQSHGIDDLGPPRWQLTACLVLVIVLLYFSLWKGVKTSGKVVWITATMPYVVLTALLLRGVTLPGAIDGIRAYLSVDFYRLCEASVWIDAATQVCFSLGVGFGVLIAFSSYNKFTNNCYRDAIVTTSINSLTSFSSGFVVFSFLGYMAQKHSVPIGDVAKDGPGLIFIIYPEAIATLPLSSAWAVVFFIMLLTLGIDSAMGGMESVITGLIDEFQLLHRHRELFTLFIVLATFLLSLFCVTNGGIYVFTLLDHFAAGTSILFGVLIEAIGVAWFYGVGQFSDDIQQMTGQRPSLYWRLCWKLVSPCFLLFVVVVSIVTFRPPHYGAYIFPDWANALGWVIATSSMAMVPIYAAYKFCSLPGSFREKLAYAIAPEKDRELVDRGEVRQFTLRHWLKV
In experiment [7] the target is Serine/threonine-protein kinase pim-1 (Homo sapiens, UniProt P11309). In words: Selectivity interaction (KinomeScan (DiscoverX)) EUB0000092b PIM1. The settings on record: at 10 µM.
Sequence of Serine/threonine-protein kinase pim-1 (P11309 whole entry, looked up): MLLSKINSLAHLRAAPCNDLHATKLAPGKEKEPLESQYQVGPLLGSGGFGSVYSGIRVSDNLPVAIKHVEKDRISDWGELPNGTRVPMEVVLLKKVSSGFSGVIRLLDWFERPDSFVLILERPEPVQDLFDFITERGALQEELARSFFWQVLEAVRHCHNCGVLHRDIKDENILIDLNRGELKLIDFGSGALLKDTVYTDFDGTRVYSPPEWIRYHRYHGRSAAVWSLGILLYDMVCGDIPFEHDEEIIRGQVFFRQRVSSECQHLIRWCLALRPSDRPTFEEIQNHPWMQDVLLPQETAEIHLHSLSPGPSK
Experiment [8] addresses T3, Muscle, skeletal receptor tyrosine-protein kinase (Homo sapiens) (UniProt O15146).
T3 sequence (whole entry): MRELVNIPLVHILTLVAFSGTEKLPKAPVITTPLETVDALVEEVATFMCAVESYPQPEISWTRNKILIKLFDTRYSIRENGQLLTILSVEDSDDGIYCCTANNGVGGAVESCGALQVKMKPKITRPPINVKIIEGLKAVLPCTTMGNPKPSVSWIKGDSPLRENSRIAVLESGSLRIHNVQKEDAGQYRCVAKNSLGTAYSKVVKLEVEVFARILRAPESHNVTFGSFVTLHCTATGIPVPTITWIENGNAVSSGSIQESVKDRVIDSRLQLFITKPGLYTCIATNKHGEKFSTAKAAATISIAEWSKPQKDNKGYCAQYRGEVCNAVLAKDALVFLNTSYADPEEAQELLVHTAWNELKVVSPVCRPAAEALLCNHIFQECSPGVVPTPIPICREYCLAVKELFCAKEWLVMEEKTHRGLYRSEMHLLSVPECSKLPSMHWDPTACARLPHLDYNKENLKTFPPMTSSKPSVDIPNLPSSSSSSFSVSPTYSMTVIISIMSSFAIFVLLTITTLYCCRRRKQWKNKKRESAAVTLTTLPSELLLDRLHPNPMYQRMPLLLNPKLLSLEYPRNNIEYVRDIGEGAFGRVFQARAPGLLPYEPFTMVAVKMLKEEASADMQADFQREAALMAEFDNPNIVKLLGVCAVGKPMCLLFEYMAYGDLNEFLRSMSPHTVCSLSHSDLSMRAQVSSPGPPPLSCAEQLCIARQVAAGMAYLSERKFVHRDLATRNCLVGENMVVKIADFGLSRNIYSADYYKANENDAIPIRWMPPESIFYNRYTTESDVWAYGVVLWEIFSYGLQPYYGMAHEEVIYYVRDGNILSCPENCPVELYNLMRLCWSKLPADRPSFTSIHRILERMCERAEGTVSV
Nature of the experiment: Selectivity interaction (Upstate Kinase Profiler service (Millipore)) EUB0000056c MUSK. The following applies: at 1 µM.

Sequence of Insulin receptor (P06213 28-758 limits assumed): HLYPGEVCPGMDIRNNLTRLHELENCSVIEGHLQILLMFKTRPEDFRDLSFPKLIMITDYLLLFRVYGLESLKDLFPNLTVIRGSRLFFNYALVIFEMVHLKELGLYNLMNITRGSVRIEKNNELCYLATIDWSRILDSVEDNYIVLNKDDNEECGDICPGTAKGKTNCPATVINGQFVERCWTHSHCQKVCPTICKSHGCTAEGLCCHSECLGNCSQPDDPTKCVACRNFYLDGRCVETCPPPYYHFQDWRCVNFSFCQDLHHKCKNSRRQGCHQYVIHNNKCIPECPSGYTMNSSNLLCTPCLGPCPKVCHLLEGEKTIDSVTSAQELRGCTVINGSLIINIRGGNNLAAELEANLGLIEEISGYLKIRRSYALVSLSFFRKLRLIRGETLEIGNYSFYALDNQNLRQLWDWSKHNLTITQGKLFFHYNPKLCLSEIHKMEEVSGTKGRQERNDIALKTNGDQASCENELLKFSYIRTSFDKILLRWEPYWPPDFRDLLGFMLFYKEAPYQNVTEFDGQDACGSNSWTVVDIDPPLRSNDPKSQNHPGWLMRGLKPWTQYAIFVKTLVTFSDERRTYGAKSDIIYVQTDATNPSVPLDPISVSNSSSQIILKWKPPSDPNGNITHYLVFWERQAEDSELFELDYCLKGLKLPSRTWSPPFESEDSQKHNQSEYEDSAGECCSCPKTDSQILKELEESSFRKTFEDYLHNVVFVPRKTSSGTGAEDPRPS
Sequence of Insulin receptor (P06213 763-1382 limits assumed): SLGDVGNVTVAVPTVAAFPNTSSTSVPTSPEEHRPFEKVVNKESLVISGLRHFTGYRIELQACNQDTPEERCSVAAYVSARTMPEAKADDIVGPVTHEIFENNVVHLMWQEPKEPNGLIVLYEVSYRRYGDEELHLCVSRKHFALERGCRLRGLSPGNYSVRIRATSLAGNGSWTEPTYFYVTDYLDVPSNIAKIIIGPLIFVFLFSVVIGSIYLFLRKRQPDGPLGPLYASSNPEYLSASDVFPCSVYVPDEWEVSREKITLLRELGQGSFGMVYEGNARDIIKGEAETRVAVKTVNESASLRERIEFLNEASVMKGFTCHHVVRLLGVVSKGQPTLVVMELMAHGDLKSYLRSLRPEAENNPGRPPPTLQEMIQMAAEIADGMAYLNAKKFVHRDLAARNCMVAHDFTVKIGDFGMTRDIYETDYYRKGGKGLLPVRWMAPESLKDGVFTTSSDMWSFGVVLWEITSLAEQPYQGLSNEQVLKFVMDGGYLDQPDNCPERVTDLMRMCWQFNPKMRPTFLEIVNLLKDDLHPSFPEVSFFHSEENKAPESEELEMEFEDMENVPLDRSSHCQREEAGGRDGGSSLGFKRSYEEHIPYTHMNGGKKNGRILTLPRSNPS
Sequence of Kappa-type opioid receptor (P41145 whole entry): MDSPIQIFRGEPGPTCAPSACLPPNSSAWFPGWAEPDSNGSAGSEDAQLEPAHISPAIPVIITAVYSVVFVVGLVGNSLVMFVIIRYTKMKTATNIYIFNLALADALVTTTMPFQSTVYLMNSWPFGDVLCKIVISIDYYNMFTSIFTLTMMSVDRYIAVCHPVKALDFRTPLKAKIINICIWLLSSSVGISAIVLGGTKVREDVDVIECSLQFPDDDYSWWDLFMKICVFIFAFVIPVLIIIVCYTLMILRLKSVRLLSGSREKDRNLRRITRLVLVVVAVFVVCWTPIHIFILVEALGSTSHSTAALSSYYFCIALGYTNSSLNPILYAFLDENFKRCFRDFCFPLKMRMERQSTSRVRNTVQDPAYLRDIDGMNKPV

In the case of `Cc1cc(C)cc([C@@H]2c3cc(C)ccc3NC(=O)CN2C(=O)c2ccc(Br)s2)c1`, in experiment [1], the % of inhibition amounted to 20%.

`CNC(=O)Nc1ccc(-c2nc(N3CC4CCC(C3)O4)c3cnn(C4CCC5(CC4)OCCO5)c3n2)cc1` gave a % of control in experiment [2] of 90%. `Cc1cc([C@@H](C)Nc2ccccc2C(=O)O)c2nc(N3CCOCC3)cc(=O)n2c1` [AZD-6482] yielded a % of control in [3] of 82%. For the molecule `CCC(=O)N1CC[C@H](Nc2ncnc3c2CN(c2cnc(OC)c(C(F)(F)F)c2)CC3)C1` [LENIOLISIB], the IC50 in experiment [4] is > 10 µM. As to `CCc1cccc(CC)c1NC(=O)c1nn(C)c2c1CCc1cnc(Nc3ccc(C(=O)NC4CCN(C)CC4)cc3OC(F)(F)F)nc1-2`, the IC50 on Insulin receptor was > 10 µM.

With `Cc1cc(F)c(C(=O)Nc2cccc(-c3nncn3C(C)C)n2)cc1-n1cnc(C2CC2)c1`, the % of control in [5] is 75%.

On to `CC(=O)c1cc(-c2ccccc2OCC2CC2)c2ncccn12`, for which, in [6], the % of control was 80%. On to `CCC(=O)N1CCN(c2ccc(-n3c(=O)ccc4cnc5ccc(-c6cnc7ccccc7c6)cc5c43)cc2C(F)(F)F)CC1`, for which the % of control in experiment [7] came to 80%. With `Cc1ccc(-c2ccc3c(ccc4sc5c(c43)NC[C@@H](C)NC5=O)n2)cn1`, the % of inhibition in [8] was -7%.
